Measured values published in US6071919A, “Zwitterionic compositions and methods as biological response modifiers” (priority 1998, dated 2000).

Key:
[1] = tested on: gram negative staphylococci; assay: Example Twelve: MIC of antibiotics with and without HEPES, staphylococci; assay type: cell-based; conditions: agar gel cultures, colony counts of 10^6, with vs without HEPES
Method: (§1) Routine agar gel cultures are inoculated with beta-hemolytic streptococci and gram […] staphylococci. The cultures were raised to colony counts of 10^6. The mean inhibitory concentration (MIC) with susceptible antibiotics was measured with and without the presence of zwitterionic piperazine (HEPES).

cancer tumors = assay: Macrophage infiltration of tumors; assay type: in vivo, dogs
Text: The amphoteric zwitterion compounds may be employed as active ingredients with other active ingredients, as well as other components and carriers typically used in pharmaceutical compositions; such as, but not limited to: buffers, stabilizers, dyes, antioxidants, dispersing agents, fillers, surfactants, silicones, bulking agents, pigments, salts, human or animal (natural or synthetic) cells and cellular components, antibiotics, drugs, vitamins, amino acids, proteins, serum and various other compounds and combinations thereof in varying amounts.

[2] = tested on: beta-hemolytic streptococci; assay: Example Twelve: MIC of antibiotics with and without HEPES, streptococci; assay type: cell-based; conditions: agar gel cultures, colony counts of 10^6, with vs without HEPES
Method: as §1

[3] = Treatment of myasthenia gravis patients with HEPES alone; assay type: in vivo, human; conditions: 300 mg/kg to 1000 mg/kg daily
Method: To date, more than twenty-five patients have been treated with 300 mg/kg to 1000 mg/kg HEPES daily (no other agents or additional compositions).

[4] = cited from earlier work
[5] = Example Fifteen: patient with seizure disorder, EEG; assay type: in vivo, human; conditions: 5000 mg orally (2500 mg twice a day), two weeks
Method: A person with a longstanding history of seizure disorder was poorly controlled and had recurrent seizures while taking Dilantin and phenobarbital. They started on 5000 mg zwitterionic piperazine orally (2500 mg twice a day) for two weeks. […] The zwitterionic piperazine (HEPES) has membrane stabilizing properties, is effective for anti-arrhythmic therapy, and is effective anti-seizure therapy.

## O=S(=O)(O)CCN1CCN(CCO)CC1 [HEPES, N-2 Hydroxyethylpiperazine-N'-2 Ethane Sulfonic Acid]
[1]
  decrease in MIC of each antibiotic in culture (in vitro): more than 10%
Cancer tumors; administered to mammals
  macrocytic invasion of tumors: macrocytic invasion of tumors
Cancer tumors; dogs
  macrophage infiltration of cancer tumors: macrophage infiltration of cancer tumors in dogs
[2]
  decrease in MIC of each antibiotic in culture (in vitro): more than 10%
[3]
  reduction in disease activity: 25%-50%
[4]
  Saturated Solution at 0°: 2.25 M
[5]
  EEG focal activity: significantly decreased focal activity
